Results reported in patent publication US20130078718A1, “CONVERSION OF VASCULAR ENDOTHELIAL CELLS INTO MULTIPOTENT STEM-LIKE CELLS” (PRESIDENT AND FELLOWS OF HARVARD COLLEGE, priority 2010, published 2013).
“Also recorded” adds a separate entry of the source.

Columns and labels:
HUVEC and HCMEC = assay: Mesenchymal stem cell marker expression in treated endothelial cells; assay type: cell-based, human; conditions: 10 ng/mL, 48 hours; for expression of mesenchymal stem cell genes CD10, CD13, CD44, CD73, CD90, CD120a, CD124 (real-time quantitative PCR): compared to control cells
Procedure: (§1) Human umbilical vein endothelial cells (HUVEC) and human cutaneous microvascular endothelial cells (HCMEC) were provided by J. Bischoff (Children's Hospital Boston) and isolated as previously described^35. […] Cells were grown in culture using EGM-2 medium (Cambrex), containing 10% FBS and 1% Penicillin/Streptomycin, followed by human endothelial serum free medium (Gibco) 24 hours prior to all experimental conditions. Bone marrow derived mesenchymal stem cells (ScienCell Research Laboratories) were grown in mesenchymal stem cell medium (ScienCell Research Laboratories). Human corneal fibroblasts, from a stock initially provided by E. Hay (Harvard Medical School), were grown in RPMI medium, containing 10% FBS and 1% Penicillin/Streptomycin. Primary human osteoblasts, chondrocytes, and adipocytes and their respective growth media were obtained from Cell Applications Inc. Recombinant TGF-β2 and BMP4 proteins (R&D Systems) were added to the serum free culture medium for all relevant experiments at a concentration of 10 ng/mL. Cells were treated for 15 minutes to assess ALK2 phosphorylation, 1 hour to measure Smad5 phosphorylation, or 48 hours to induce EndMT. All experiments for this study were performed at minimum in triplicate.
(§2) Immunoassays were performed using the following antibodies at concentrations (and using protocols) recommended by the respective manufacturers: FSP-1 (H00006275-M01; Stressgen), ALK2 (sc-5671), Phospho-tyrosine (sc-7020), VE-cadherin (sc-6458), TIE2 (sc-324, sc-9026), STRO-1 (sc-47733), CD44 (sc-71220), CD90 (sc-9163), Osteocalcin (sc-74495, sc-23790), SOX9 (sc-20095), COL2A1 (sc-59958, sc-52658), PPARγ2 (sc-22022; Santa Cruz Biotechnology), vWF (ab68545; Abcam); His (A00174; GenScript); α-SMA (A5228), β-actin (A1978; Sigma-Aldrich). Samples were run with Criterion precast SDS-PAGE Gels (Bio-Rad). HRP-conjugated IgG TrueBlot reagents (18-8814, 18-8816, 18-8817; eBioscience) were used at a dilution of 1:1000. TrueBlot IgG beads (eBioscience) were used for immunoprecipitation experiments. Alexa Fluor secondary antibodies (Invitrogen) were used at a dilution of 1:200. Images were acquired using a Nikon 80i fluorescence microscope.
Endothelial cells were stained in suspension using antibodies against TIE2, FSP-1, STRO-1, and His (described above) and the protocols provided by their respective manufacturer. Flow cytometry was performed at the Harvard Medical School, Department of Pathology flow cytometry core facility using a FACSDCalibur (BD Biosciences) cell sorter isolating 30,000 cells per sample.
RNA extractions were performed using the RNeasy Mini kit (Qiagen) and protocol. RNA samples were submitted to a core facility (Biopolymers Facility, Department of Genetics, Harvard Medical School) where real-time PCR experiments were conducted using the Syber Green PCR system (ABI) on an ABI 7500 cycler, with 40 cycles per sample. Cycling temperatures were as follows: denaturing 95° C.; annealing 60° C.; extension, 70° C. The following primers (Integrated DNA Technologies) were used: […]
Human umbilical vein endothelial cells (HUVEC) and human cutaneous microvascular endothelial cells (HCMEC) isolated as previously described (35). […] Cells were grown in culture using EGM-2 medium (Cambrex), containing 10% FBS and 1% Penicillin/Streptomycin, followed by human endothelial serum free medium (Gibco) 24 h prior to all experimental conditions.

Smad2 and Smad5 = assay: Smad phosphorylation by immunoblotting; assay type: cell-based, human; conditions: for Smad5 phosphorylation: 10 ng/mL, 1 hour; for phosphorylation of Smad2 and Smad5 (immunoblotting): HUVECs, 10 ng ml−1, 1 h
Procedure: as §1, §2
Human umbilical vein endothelial cells (HUVEC) and human cutaneous microvascular endothelial cells (HCMEC) isolated as previously described (35). […] Cells were grown in culture using EGM-2 medium (Cambrex), containing 10% FBS and 1% Penicillin/Streptomycin, followed by human endothelial serum free medium (Gibco) 24 h prior to all experimental conditions. Bone marrow derived mesenchymal stem cells (ScienCell Research Laboratories) were grown in mesenchymal stem cell medium (ScienCell Research Laboratories). Bone marrow derived hematopoietic stem cells (Lonza) were grown in HPGM medium (Lonza). Human corneal fibroblasts, from a stock provided by Dr. Elizabeth Hay (Harvard Medical School), were grown in RPMI medium, containing 10% FBS and 1% Penicillin/Streptomycin. Primary human osteoblasts, chondrocytes, and adipocytes and their respective growth media were obtained from Cell Applications, Inc. Recombinant TGF-β2, BMP4, and BMP7 proteins (R&D Systems) were added to the serum free culture medium for all relevant experiments at a concentration of 10 ng ml^−1. Recombinant VEGF (R&D Systems) was added to cultures at a concentration of 25 ng ml^−1. Dorsomorphin (Sigma-Aldrich) was added to cultures at a concentration of 5 μM.

[1] = test system: Human umbilical vein endothelial cells (HUVECs) and human cutaneous microvascular endothelial cells (HCMECs); assay: Endothelial-mesenchymal transition (EndMT) in endothelial cells: morphology, marker expression by immunoblotting, flow cytometry, real-time PCR, ELISA; assay type: cell-based
ALK2 = target: T1, ALK2 (Homo sapiens, UniProt Q04771); assay: ALK2 phosphorylation: immunoprecipitation with ALK2 antibodies, phospho-tyrosine immunoblotting; assay type: cell-based; conditions: 10 ng/mL, 15 minutes
T1 construct: Phosphorylation of this receptor was therefore examined in cell lysates; endogenous in cells; host or cells: primary HUVEC and HCMEC
T1 sequence (Q04771 21-509): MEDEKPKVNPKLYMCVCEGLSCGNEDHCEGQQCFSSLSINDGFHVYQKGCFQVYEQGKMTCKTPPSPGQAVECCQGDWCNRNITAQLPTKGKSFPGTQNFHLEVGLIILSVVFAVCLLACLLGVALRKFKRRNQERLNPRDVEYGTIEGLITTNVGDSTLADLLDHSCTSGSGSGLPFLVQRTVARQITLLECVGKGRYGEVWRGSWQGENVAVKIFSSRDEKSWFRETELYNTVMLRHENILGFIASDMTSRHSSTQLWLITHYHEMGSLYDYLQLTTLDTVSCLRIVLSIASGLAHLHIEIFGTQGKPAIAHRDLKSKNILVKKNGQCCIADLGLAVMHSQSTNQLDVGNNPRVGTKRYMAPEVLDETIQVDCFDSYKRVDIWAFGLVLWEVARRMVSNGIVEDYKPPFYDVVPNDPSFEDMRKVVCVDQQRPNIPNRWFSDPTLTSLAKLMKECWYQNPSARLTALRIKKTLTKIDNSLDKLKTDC
Procedure: Human umbilical vein endothelial cells (HUVEC) and human cutaneous microvascular endothelial cells (HCMEC) were provided by J. Bischoff (Children's Hospital Boston) and isolated as previously described^35. […] Cells were grown in culture using EGM-2 medium (Cambrex), containing 10% FBS and 1% Penicillin/Streptomycin, followed by human endothelial serum free medium (Gibco) 24 hours prior to all experimental conditions. Bone marrow derived mesenchymal stem cells (ScienCell Research Laboratories) were grown in mesenchymal stem cell medium (ScienCell Research Laboratories). Human corneal fibroblasts, from a stock initially provided by E. Hay (Harvard Medical School), were grown in RPMI medium, containing 10% FBS and 1% Penicillin/Streptomycin. […]
Immunoassays were performed using the following antibodies at concentrations (and using protocols) recommended by the respective manufacturers: FSP-1 (H00006275-M01; Stressgen), ALK2 (sc-5671), Phospho-tyrosine (sc-7020), VE-cadherin (sc-6458), TIE2 (sc-324, sc-9026), STRO-1 (sc-47733), CD44 (sc-71220), CD90 (sc-9163), Osteocalcin (sc-74495, sc-23790), SOX9 (sc-20095), COL2A1 (sc-59958, sc-52658), PPARγ2 (sc-22022; Santa Cruz Biotechnology), vWF (ab68545; Abcam); His (A00174; GenScript); α-SMA (A5228), β-actin (A1978; Sigma-Aldrich). […] Images were acquired using a Nikon 80i fluorescence microscope. […]

| Substance | STRO-1 and other mesenchymal stem cell markers (immunoblotting) (HUVEC and HCMEC) | co-expression of TIE2 and mesenchymal stem cell marker STRO-1 (immunofluorescence microscopy or flow cytometry) (HUVEC and HCMEC) | expression of mesenchymal stem cell genes CD10, CD13, CD44, CD73, CD90, CD120a, CD124 (real-time quantitative PCR) (HUVEC and HCMEC) | Smad5 phosphorylation (Smad2 and Smad5) | phosphorylation of Smad2 and Smad5 (immunoblotting) (Smad2 and Smad5) | TIE2 levels after 96 h of treatment [1] | ALK2 receptor phosphorylation (phospho-tyrosine) (ALK2) |
| --- | --- | --- | --- | --- | --- | --- | --- |
| BMP4: Recombinant BMP4 protein (R&D Systems), ALK2 activating ligand, used at 10 ng/mL | strongly expressed | strong co-expression; also recorded: massive co-expression | greatly increased | phosphorylated | promoted phosphorylation of both Smad2 and Smad5 | small decrease; also recorded: slight decrease | induced receptor phosphorylation |
| TGF-β2: Recombinant TGF-β2 protein (R&D Systems), ALK2 activating ligand, used at 10 ng/mL | strongly expressed | strong co-expression; also recorded: massive co-expression | greatly increased | phosphorylated | promoted phosphorylation of both Smad2 and Smad5 | small decrease; also recorded: slight decrease | induced receptor phosphorylation |
